The values that follow are results of earlier work, collected in US11874283B2, “Method and compositions for the treatment and detection of endothelin-1 related kidney diseases” (MOREHOUSE SCHOOL OF MEDICINE, priority 2010, dated 2024).

Ends that are not written are not given here.

The test system of this data set is ET-1 ELISA. To be noted: as determined by the manufacturer.
For “ET-2: endothelin peptide cross-reacting in the ET-1 ELISA (CSCSSWLDKECVYFCHLDIIW; ends and bridges not checked; cysteine pairing not given here; UniProt P20800 49-69, looked up)”, the Cross reactivity is reported as 45%.
On to “ET-3: endothelin peptide cross-reacting in the ET-1 ELISA (CTCFTYKDKECVYYCHLDIIW; ends and bridges not checked; cysteine pairing not given here; UniProt P14138 97-117, looked up)”, for which the Cross reactivity is given as 14%.
As for “big ET-1: biologically inactive 38-amino acid precursor of ET-1 (CSCSSLMDKECVYFCHLDIIWVNTPEHVVPYGLGSPRS; ends and bridges not checked; cysteine pairing not given here; UniProt P05305 53-90, looked up)”, the Cross reactivity entry is reported as “less than 1%”.
